US20240300886A1, “ARYLCYCLOHEXYLAMINE DERIVATIVES AND THEIR USE IN THE TREATMENT OF PSYCHIATRIC DISORDERS” (GILGAMESH PHARMACEUTICALS, INC., priority 2021, published 2024)
Like-named read-outs stand apart in the source and are kept apart here.

Key:
[1] = Comparative metabolism/PK of 2R and deuterated 7R in rats after oral administration; format: in vivo, Sprague Dawley rats; conditions: for concentration at 0.083 h / concentration at 0.25 h / concentration at 0.5 h / concentration at 1 h / concentration at 2 h / concentration at 4 h / half-life / Cmax / AUC(0-t): male, Sprague Dawley, rat, 10 mg/kg; for concentration at 0.083 h / concentration at 0.25 h / concentration at 0.5 h / concentration at 1 h / concentration at 2 h / concentration at 4 h: oral; for half-life / Cmax / AUC(0-t): po; for AUC(0-t): read-out: AUC0-last (plasma) (converted)
Protocol: Animals. Male Sprague Dawley rats were used in these studies. Animals were randomly assigned to treatment groups and were fasted for 4 h before dosing.
Drugs. Test compounds 2R and 7R were dissolved in a vehicle consisting of normal saline. They were then administered orally (po) at a dose of 10 mg/kg (calculated based on freebase), and at a volume of 5 mL/kg body weight.
Sample Collection and Bioanalysis. Blood samples (approximately 60 μL) were collected under light isoflurane anesthesia (Surgivet®) from the retro orbital plexus at 0.08, 0.25, 0.5, 1, 2, 4, 8, and 24 h (4 animals per time point). Immediately after blood collection, plasma was harvested by centrifugation at 4,000 rpm for 10 min at 4° C. and samples were stored at −70±10° C. until bioanalysis. Following blood collection, animals were immediately sacrificed, the abdominal vena-cava was cut open, and the whole body was perfused from the heart using 10 mL of normal saline, and brain samples were collected from all animals. After isolation, brain samples were rinsed three times in ice-cold normal saline (for 5-10 seconds/rinse using ˜5-10 mL normal saline in disposable petri dish for each rinse) and dried on blotting paper. Brain samples were homogenized using ice-cold phosphate-buffered saline (pH 7.4) Total homogenate volume was three times the tissue weight. All homogenates were stored at −70±10° C. until bioanalysis. For bioanalysis, 25 μL aliquots of plasma/brain study samples or spiked plasma/brain calibration standards were added to individual pre-labeled micro-centrifuge tubes followed by 100 μL of an internal standard solution (glipizide, 500 ng/mL in acetonitrile) except for blanks, where 100 μL of acetonitrile was added. Samples were vortexed for 5 minutes and then centrifuged for 10 minutes at 4,000 rpm at 4° C. Following centrifugation, 100 μL of each clear supernatant was transferred to a 96 well plate and analyzed with a fit-for-purpose LC-MS/MS method, with authentic samples of each analyte used for calibration and identification. Concentrations of parent compound (2R or 7R) and metabolite 1R were determined in all samples.
Data Analysis. Pharmacokinetic parameters were estimated using the non-compartmental analysis tool of Phoenix® WinNonlin software (Ver 8.0).

[2] = system: immobility time in the FST; assay: Forced swim test (FST) in rats; format: in vivo, Sprague-Dawley rats; conditions: s.c., 23.5-h pre-treatment time
Protocol: Disclosed compounds were tested in the forced swim test (FST) in rats with a 23.5-h pre-treatment time according to the following procedures.
Animals. Male Sprague-Dawley rats, aged 8-10 weeks, were used in the experiments. Animals were housed in groups of 2 under controlled temperature (22±3° C.) and relative humidity (30-70%) conditions, with 12-hour light/dark cycles, and with ad libitum food and water. All efforts were made to minimize suffering.
Drugs and Drug Administration. Test compounds, saline vehicle, and the positive control desipramine were administered subcutaneously (s.c.), with doses calculated based on the freebase. Normal saline was used as the vehicle for compounds provided as the HCl salt, while saline acidified with 1-2 molar equivalents of HCl was used as the vehicle for compounds provided as the freebase (to form the soluble HCl salt in situ). All compounds were administered at a volume of 5 mL/kg. Test compounds and vehicle were administered 0.5 h after the start of the training swim (Swim 1) and 23.5 h before the test swim (Swim 2). […]
Behavioral scoring was conducted by observers who were blind to the treatment groups. Animals were continuously observed during Swim 2 and the total time spent engaging in the following behaviors was recorded: immobile, swimming, and climbing. […]

[3] = Stability in liver microsomes (Example 21), beagle dog; format: in vitro ADME; conditions: male, pH 7.4, 0.5 mg/mL protein
Protocol: (§1) General Procedure. Briefly, test compounds (final concentration 1 μM) were incubated in duplicate with liver microsomes from male animals of the indicated species (final protein concentration 0.5 mg/mL) in 50 mM sodium phosphate buffer (pH 7.4) with or without NADPH (1 mM). Total incubation volume was 500 μL. At 0, 5, 15, 30, and 60 min, aliquots of 50 μL were withdrawn, quenched with acetonitrile (150 μL), and analyzed for parent compound remaining using a fit-for-purpose LC-MS/MS method. Intrinsic clearance and half-life were calculated. Clearance values below zero were rounded to zero.

[4] = Stability in liver microsomes (Example 21), Gottingen minipig; format: in vitro ADME; conditions: male, pH 7.4, 0.5 mg/mL protein
Protocol: as §1

[5] = Stability in liver microsomes (Example 21), cynomolgus monkey; format: in vitro ADME; conditions: male, pH 7.4, 0.5 mg/mL protein
Protocol: as §1

[6] = brain, rat brain, 0.083 h after 10 mg/kg po of 2R or 7R, read-out: Mean brain concentration
[7] = brain, rat brain, 0.25 h after 10 mg/kg po of 2R or 7R, read-out: Mean brain concentration
[8] = brain, rat brain, 0.5 h after 10 mg/kg po of 2R or 7R, read-out: Mean brain concentration
[9] = brain, rat brain, 1 h after 10 mg/kg po of 2R or 7R, read-out: Mean brain concentration
[10] = brain, rat brain, 2 h after 10 mg/kg po of 2R or 7R, read-out: Mean brain concentration
[11] = brain, rat brain, 4 h after 10 mg/kg po of 2R or 7R, read-out: Mean brain concentration
[12] = brain, rat brain after 10 mg/kg po of 2R or 7R, parent or metabolite 1R as labelled, read-out: t1/2 (brain)
[13] = plasma, rat plasma, 0.083 h after 10 mg/kg po of 2R or 7R, read-out: Mean plasma concentration
[14] = plasma, rat plasma, 0.25 h after 10 mg/kg po of 2R or 7R, read-out: Mean plasma concentration
[15] = plasma, rat plasma, 0.5 h after 10 mg/kg po of 2R or 7R, read-out: Mean plasma concentration
[16] = plasma, rat plasma, 1 h after 10 mg/kg po of 2R or 7R, read-out: Mean plasma concentration
[17] = plasma, rat plasma, 2 h after 10 mg/kg po of 2R or 7R, read-out: Mean plasma concentration
[18] = plasma, rat plasma, 4 h after 10 mg/kg po of 2R or 7R, read-out: Mean plasma concentration
[19] = plasma, rat plasma after 10 mg/kg po of 2R or 7R, parent or metabolite 1R as labelled
[20] = plasma, rat plasma after 10 mg/kg po of 2R or 7R, parent or metabolite 1R as labelled, read-out: t1/2 (plasma)
[21] = rat brain after 10 mg/kg po of 2R or 7R, parent or metabolite 1R as labelled, listed as 1R as metabolite of 2R
[22] = rat brain after 10 mg/kg po of 2R or 7R, parent or metabolite 1R as labelled, listed as 1R as metabolite of 7R
[23] = rat plasma after 10 mg/kg po of 2R or 7R, parent or metabolite 1R as labelled, listed as 1R as metabolite of 7R
[24] = rat brain after 10 mg/kg po of 2R or 7R, parent or metabolite 1R as labelled

Structure (SMILES) | concentration at 0.083 h [1, 6] [ng/g] | concentration at 0.25 h [1, 7] [ng/g] | concentration at 0.5 h [1, 8] [ng/g] | concentration at 1 h [1, 9] [ng/g] | concentration at 2 h [1, 10] [ng/g] | concentration at 4 h [1, 11] [ng/g] | half-life [1, 12] [h] | concentration at 0.083 h [1, 13] [ng/mL] | concentration at 0.25 h [1, 14] [ng/mL] | concentration at 0.5 h [1, 15] [ng/mL] | concentration at 1 h [1, 16] [ng/mL] | concentration at 2 h [1, 17] [ng/mL] | concentration at 4 h [1, 18] [ng/mL] | Cmax [1, 19] [ng/mL] | AUC(0-t) [1, 19] [ng·h/mL] | half-life [1, 20] [h] | immobility time in the FST relative to vehicle [2] | microsomal CLint at 1 μM [3] [µL/min/mg] | microsomal CLint at 1 μM [4] [µL/min/mg] | microsomal CLint at 1 μM [5] [µL/min/mg] | other results
N[C@@]1(c2ccc(F)cc2)CCCCC1=O [Compound 1R, (R)-2-amino-2-(4-fluorophenyl)cyclohexan-1-one] | 56 | 1470 | 3200 | 3500 | 2670 | 1610 | 2.02 | 31 | 889 | 1700 | 2110 | 1410 | 690 | 2110 | 8630 | 3.03 | – | – | – | – | AUC0-last (brain) [1, 21]: 820350 ng·min/g; Cmax (brain) [1, 21]: 3502 ng/g; AUC0-last (brain) [1, 22]: 912802 ng·min/g; Cmax (brain) [1, 22]: 2335 ng/g; t1/2 (brain) [1, 22]: 3.08 h; Mean brain concentration ([1]; rat brain, 0.083 h after 10 mg/kg po of 2R or 7R, listed as 1R as metabolite of 7R): 59 ng/g; Mean brain concentration ([1]; rat brain, 0.25 h after 10 mg/kg po of 2R or 7R, listed as 1R as metabolite of 7R): 1233 ng/g; Mean brain concentration ([1]; rat brain, 0.5 h after 10 mg/kg po of 2R or 7R, listed as 1R as metabolite of 7R): 1623 ng/g; Mean brain concentration ([1]; rat brain, 1 h after 10 mg/kg po of 2R or 7R, listed as 1R as metabolite of 7R): 2075 ng/g; Mean brain concentration ([1]; rat brain, 2 h after 10 mg/kg po of 2R or 7R, listed as 1R as metabolite of 7R): 2335 ng/g; Mean brain concentration ([1]; rat brain, 4 h after 10 mg/kg po of 2R or 7R, listed as 1R as metabolite of 7R): 1176 ng/g; AUC0-last (plasma) [1, 23]: 503548 ng·min/mL; Cmax (plasma) [1, 23]: 1564 ng/mL; Mean plasma concentration ([1]; rat plasma, 0.083 h after 10 mg/kg po of 2R or 7R, listed as 1R as metabolite of 7R): 16 ng/mL; Mean plasma concentration ([1]; rat plasma, 0.25 h after 10 mg/kg po of 2R or 7R, listed as 1R as metabolite of 7R): 525 ng/mL; Mean plasma concentration ([1]; rat plasma, 0.5 h after 10 mg/kg po of 2R or 7R, listed as 1R as metabolite of 7R): 960 ng/mL; Mean plasma concentration ([1]; rat plasma, 1 h after 10 mg/kg po of 2R or 7R, listed as 1R as metabolite of 7R): 1360 ng/mL; Mean plasma concentration ([1]; rat plasma, 2 h after 10 mg/kg po of 2R or 7R, listed as 1R as metabolite of 7R): 1564 ng/mL; Mean plasma concentration ([1]; rat plasma, 4 h after 10 mg/kg po of 2R or 7R, listed as 1R as metabolite of 7R): 705 ng/mL
N[C@]1(c2ccc(F)cc2)CCCCC1=O [Compound 1S, (S)-2-amino-2-(4-fluorophenyl)cyclohexan-1-one] | – | – | – | – | – | – | – | – | – | – | – | – | – | – | – | – | reduced immobility time | – | – | – | –
CN[C@@]1(c2ccc(F)cc2)CCCCC1=O [Compound 2R, (R)-2-(4-fluorophenyl)-2(methylamino)cyclohexan-1-one] | – | – | – | – | – | – | 1.18 | 37 | 760 | 850 | 497 | 142 | 42 | 850 | 1200 | 1.17 | reduced immobility time | 10.5 | 16.4 | 9.5 | AUC0-last (brain) [1, 24]: 227268 ng·min/g; Cmax (brain) [1, 24]: 2599 ng/g
CN[C@]1(c2ccc(F)cc2)CCCCC1=O [Compound 2S, (S)-2-(4-fluorophenyl)-2-(methylamino)cyclohexan-1-one] | 43 | 1900 | 2600 | 1510 | 521 | 155 | – | – | – | – | – | – | – | – | – | – | – | 7.3 | 20.3 | 15.3 | –
